In patent US9808003B2, “Herbicidally active 2-(substituted-phenyl)-cyclopentane-1,3-dione compounds and derivatives thereof” (Syngenta Limited, priority 2013, dated 2017):

Assays:
Format in all cases: in vivo
Conditions in all cases: 14 DAA
Setaria viridis (SETVI) = assay: Test 1B glasshouse assay, post-emergence herbicidal activity against grassy weeds
Description: (§1) Biological Example 1B tests the herbicidal activity of“technical” compounds (i.e. compounds not previously formulated before the test), as the herbicides under test.
(§2) An “instant formulation”, known as the “IF50”, containing 50 g/liter (i.e. 5% w/v) of the “technical” (i.e. unformulated) active ingredient (i.e. the herbicide under test), is prepared by dissolving the active ingredient in a mixture of organic solvents and emulsifier, details of which are provided in the Table below.
(§3) This IF50 is mixed with a small, variable amount of acetone to aid dissolution, before addition of a 0.5% v/v aqueous solution of the adjuvant Adigor™ (an adjuvant containing rapeseed oil methyl ester, ethoxylated alcohols, and a mixture of heavy aromatic hydrocarbons, e.g. available from Syngenta), as the aqueous diluent, to form an aqueous spray solution which contains a predetermined concentration of the active ingredient (which varies depending on the application rate of the active ingredient to the plants) and 0.5% v/v of the adjuvant Adigor™. This aqueous spray solution is suitable for spraying onto plants.
(§4) Seeds of a variety of test species are sown in standard soil in pots. After cultivation for 14 days under controlled conditions in a glasshouse (at 22/16° C., day/night; 16 hours light; 65% humidity), the plants are sprayed post-emergence with the above-mentioned aqueous spray solution containing inter alia the “technical” active ingredient (i.e. the herbicide under test) and the adjuvant Adigor™.
(§5) The test plants are then grown on under controlled conditions in the glasshouse (at 22/16° C., day/night; 16 hours light; 65% humidity) and are watered twice daily. 14 days after application of the test herbicide, the test is evaluated visually for percentage phytotoxicity to the plant (where 100%=total damage to plant; 0%=no damage to plant).
(§6) More specifically, post-emergence herbicidal activity (phytotoxicity) data, on certain tested grassy monocotyledonous weeds (and/or plants of the type Gramineae) and cereal crops in the glasshouse, are measured 14 days after application of the herbicide (14 DAA), typically for inter alia one or more of the following application rates: • (a) a post-emergence application rate of 60 g/ha of the test herbicide with or without 50 g/ha of cloquintocet-mexyl safener, and • (b) a post-emergence application rate of 90 g/ha of the test herbicide with 50 g/ha of cloquintocet-mexyl safener, and • (c) a post-emergence application rate of 120 g/ha of the test herbicide with 50 g/ha of cloquintocet-mexyl safener.
(§7) The cloquintocet-mexyl, when used, is present in the formulation containing the herbicide under test dissolved in acetone plus IF50.
(§8) The range of herbicide application rates tested sometimes includes application rates other than those shown above, and the rates can vary depending on the herbicide under test.
(§9) Herbicidal activity (phytotoxicity) is evaluated visually, and an assessed percentage phytotoxicity score is given for each herbicidal application on each plant species (with 100%=total damage to plant; 0%=no damage to plant; the assessment is recorded in increments of 1%). Two replicates are made for each experiment, and the mean herbicidal activity (phytotoxicity) data is reported.
(§10) For compounds A34, A98, A99, A87, A100, A101, A89, A120, A120A, A120B, A23, A127, A128, A89, A112 and A113 the tested weeds were as follows: Avena fatua (AVEFA), Lolium multiflorum (LOLMU), Setaria viridis (SETVI), Poa annua (POAAN), Alopecurus myosuroides (ALOMY). All five of these are grassy monocotyledonous weeds. Except for SETVI, these are all “cool-season” grassy monocotyledonous weeds.

[1] = test system: Alopecurus myosuroides (ALOMY); assay: as above
Description: as §1, §2, §3, §4, §5, §6, §7, §8, §9, §10

Avena fatua (AVEFA) = assay: as above
Description: as §1, §2, §3, §4, §5, §6, §7, §8, §9, §10

Poa annua (POAAN) = assay: as above
Description: as §1, §2, §3, §4, §5, §6, §7, §8, §9, §10

[2] = test system: Lolium multiflorum (LOLMU); assay: as above
Description: as §1, §2, §3, §4, §5, §6, §7, §8, §9, §10

[3] = test system: Spring Barley “Harrington”; assay: Test 1B glasshouse assay, post-emergence herbicidal activity against cereal crops
Description: as §1, §2, §3, §4, §5, §6, §7, §8, §9

Winter Wheat “Hereward” = assay: as above
Description: as §1, §2, §3, §4, §5, §6, §7, §8, §9

Spring Wheat “Teal” = assay: as above
Description: as §1, §2, §3, §4, §5, §6, §7, §8, §9

Winter Barley “Suzuka” = assay: as above
Description: as §1, §2, §3, §4, §5, §6, §7, §8, §9

[4] = 60 g/ha herbicide, 0 g/ha cloquintocet-mexyl, test result no. 1 (T1)
[5] = 60 g/ha herbicide, 50 g/ha cloquintocet-mexyl, test result no. 1 (T1)
[6] = 60 g/ha herbicide, 50 g/ha cloquintocet-mexyl, test result no. 2 (T2)
[7] = 90 g/ha herbicide, 50 g/ha cloquintocet-mexyl, test result no. 2 (T2)
[8] = 120 g/ha herbicide, 50 g/ha cloquintocet-mexyl, test result no. 2 (T2)

Cc1cc(-n2cc(Cl)cn2)cc(C)c1C1C(=O)C[C@H](CCNC(=O)c2ccccn2)C1=O (stereo partly drawn) [Compound A99]
Post-emergence herbicidal activity, percentage phytotoxicity, SETVI (Setaria viridis (SETVI); [4]): 10 (T1) % | Post-emergence herbicidal activity, percentage phytotoxicity, SETVI (Setaria viridis (SETVI); [5]): 8 (T1); % | Post-emergence herbicidal activity, percentage phytotoxicity, SETVI (Setaria viridis (SETVI); [6]): 33 (T2) % | Post-emergence herbicidal activity, percentage phytotoxicity, SETVI (Setaria viridis (SETVI); [7]): 68 (T2) % | Post-emergence herbicidal activity, percentage phytotoxicity, SETVI (Setaria viridis (SETVI); [8]): 75 (T2) % | Post-emergence herbicidal activity, percentage phytotoxicity, ALOMY [1, 4]: 50 (T1) % | Post-emergence herbicidal activity, percentage phytotoxicity, ALOMY [1, 5]: 35 (T1); % | Post-emergence herbicidal activity, percentage phytotoxicity, ALOMY [1, 6]: 38 (T2) % | Post-emergence herbicidal activity, percentage phytotoxicity, ALOMY [1, 7]: 58 (T2) % | Post-emergence herbicidal activity, percentage phytotoxicity, ALOMY [1, 8]: 73 (T2) % | Post-emergence herbicidal activity, percentage phytotoxicity, AVEFA (Avena fatua (AVEFA); [4]): 50 (T1) % | Post-emergence herbicidal activity, percentage phytotoxicity, AVEFA (Avena fatua (AVEFA); [5]): 40 (T1); % | Post-emergence herbicidal activity, percentage phytotoxicity, AVEFA (Avena fatua (AVEFA); [6]): 48 (T2) % | Post-emergence herbicidal activity, percentage phytotoxicity, AVEFA (Avena fatua (AVEFA); [7]): 60 (T2) % | Post-emergence herbicidal activity, percentage phytotoxicity, AVEFA (Avena fatua (AVEFA); [8]): 78 (T2) % | Post-emergence herbicidal activity, percentage phytotoxicity, POAAN (Poa annua (POAAN); [4]): 70 (T1) % | Post-emergence herbicidal activity, percentage phytotoxicity, POAAN (Poa annua (POAAN); [5]): 73 (T1); % | Post-emergence herbicidal activity, percentage phytotoxicity, POAAN (Poa annua (POAAN); [6]): 70 (T2) % | Post-emergence herbicidal activity, percentage phytotoxicity, POAAN (Poa annua (POAAN); [7]): 73 (T2) % | Post-emergence herbicidal activity, percentage phytotoxicity, POAAN (Poa annua (POAAN); [8]): 75 (T2) % | Post-emergence herbicidal activity, percentage phytotoxicity, LOLMU [2, 4]: 35 (T1) % | Post-emergence herbicidal activity, percentage phytotoxicity, LOLMU [2, 5]: 35 (T1); % | Post-emergence herbicidal activity, percentage phytotoxicity, LOLMU [2, 6]: 55 (T2) % | Post-emergence herbicidal activity, percentage phytotoxicity, LOLMU [2, 7]: 65 (T2) % | Post-emergence herbicidal activity, percentage phytotoxicity, LOLMU [2, 8]: 78 (T2) % | Post-emergence herbicidal activity against cereal crops, percentage phytotoxicity, Spring Barley “Harrington” [3, 4]: 15 (T1) % | Post-emergence herbicidal activity against cereal crops, percentage phytotoxicity, Spring Barley “Harrington” [3, 5]: 3 (T1); % | Post-emergence herbicidal activity against cereal crops, percentage phytotoxicity, Spring Barley “Harrington” [3, 6]: 3 (T2) % | Post-emergence herbicidal activity against cereal crops, percentage phytotoxicity, Spring Barley “Harrington” [3, 7]: 5 (T2) % | Post-emergence herbicidal activity against cereal crops, percentage phytotoxicity, Spring Barley “Harrington” [3, 8]: 8 (T2) % | Post-emergence herbicidal activity against cereal crops, percentage phytotoxicity, Winter Wheat “Hereward” (Winter Wheat “Hereward”; [4]): 0 (T1) % | Post-emergence herbicidal activity against cereal crops, percentage phytotoxicity, Winter Wheat “Hereward” (Winter Wheat “Hereward”; [5]): 1 (T1); % | Post-emergence herbicidal activity against cereal crops, percentage phytotoxicity, Winter Wheat “Hereward” (Winter Wheat “Hereward”; [6]): 0 (T2) % | Post-emergence herbicidal activity against cereal crops, percentage phytotoxicity, Winter Wheat “Hereward” (Winter Wheat “Hereward”; [7]): 0 (T2) % | Post-emergence herbicidal activity against cereal crops, percentage phytotoxicity, Winter Wheat “Hereward” (Winter Wheat “Hereward”; [8]): 8 (T2) % | Post-emergence herbicidal activity against cereal crops, percentage phytotoxicity, Spring Wheat “Teal” (Spring Wheat “Teal”; [4]): 2 (T1) % | Post-emergence herbicidal activity against cereal crops, percentage phytotoxicity, Spring Wheat “Teal” (Spring Wheat “Teal”; [5]): 1 (T1); % | Post-emergence herbicidal activity against cereal crops, percentage phytotoxicity, Spring Wheat “Teal” (Spring Wheat “Teal”; [6]): 5 (T2) % | Post-emergence herbicidal activity against cereal crops, percentage phytotoxicity, Spring Wheat “Teal” (Spring Wheat “Teal”; [7]): 5 (T2) % | Post-emergence herbicidal activity against cereal crops, percentage phytotoxicity, Spring Wheat “Teal” (Spring Wheat “Teal”; [8]): 8 (T2) % | Post-emergence herbicidal activity against cereal crops, percentage phytotoxicity, Winter Barley “Suzuka” (Winter Barley “Suzuka”; [4]): 60 (T1) % | Post-emergence herbicidal activity against cereal crops, percentage phytotoxicity, Winter Barley “Suzuka” (Winter Barley “Suzuka”; [5]): 15 (T1); % | Post-emergence herbicidal activity against cereal crops, percentage phytotoxicity, Winter Barley “Suzuka” (Winter Barley “Suzuka”; [6]): 14 (T2) % | Post-emergence herbicidal activity against cereal crops, percentage phytotoxicity, Winter Barley “Suzuka” (Winter Barley “Suzuka”; [7]): 35 (T2) % | Post-emergence herbicidal activity against cereal crops, percentage phytotoxicity, Winter Barley “Suzuka” (Winter Barley “Suzuka”; [8]): 38 (T2) %
